Data set [1] is described as follows: Cytotoxicity against HEK293 cells assessed as reduction in cell viability after 48 hrs by MTT assay. It is filed as toxicity, cell-based. The conditions noted are these: human. In general terms: Tetrazolium assays rely on reduction of a dye to a coloured formazan, in cell work by metabolically active cells.
Data set [2] in a line: Selectivity index, ratio of IC50 for mouse RAW264.7 cells to IC50 for antitrypanosomal activity against bloodstream Trypanosoma brucei Lister 427. The conditions noted are these: read-out: Ratio IC50. It is filed as toxicity.
The test system of data set [3] is Trypanosoma brucei. Nature of the data set: Antitrypanosomal activity against bloodstream Trypanosoma brucei Lister 427 assessed as reduction in parasite viability incubated for 48 hrs by MTS assay. It is filed as functional, organism-based. The conditions noted are these: Lister 427, 48 h.
Data set [4] can be described thus: Cytotoxicity against mouse RAW264.7 cells assessed as reduction in cell viability after 48 hrs by MTT assay. It counts as toxicity, cell-based.
Data set [5] in a line: Selectivity index, ratio of IC50 for HEK293 cells to IC50 for antitrypanosomal activity against bloodstream Trypanosoma brucei Lister 427. It counts as toxicity. The conditions noted are these: human, read-out: Ratio IC50.
Data set [6] in a line: Acute toxicity in CD1 mouse assessed as change in body weight at 50 mg/kg, po. Conditions: in vivo. It counts as organism-based.
Data set [7] concerns Trypanosoma brucei. Nature of the data set: Antitrypanosomal activity against Trypanosoma brucei infected in CD1 mouse assessed as reduction in parasite number at 50 mg/kg/day, po administered for 3 days and measured on day 5 by hemocytometer analysis (reference value: 40 10^6/ml. It is filed as functional. The conditions noted are these: time 5 day.

Where only a bound is given, the exact number is not on record here.

Turning to `COc1cc(NC(=O)c2ccc(Cl)c([N+](=O)[O-])c2)ccc1S(N)(=O)=O`, the IC50 (in general, the midpoint of a concentration-inhibition curve) at 48 h amounted to 15.7 µM in data set [1] and 72.7 µM in data set [4]. Moreover, the selectivity ratio in data set [2] came to 4.77; in data set [5], 1.03. Besides, the IC50 in the data set with Trypanosoma brucei [3] was 15.2 µM.

As to `COc1cc(NC(=O)c2cccc(I)c2)ccc1S(N)(=O)=O`, the IC50 at 48 h in data set [1] was 48.9 µM; in data set [4], above 100 µM. Moreover, the selectivity ratio in data set [2] is above 5.16; in data set [5], 2.53. The IC50 in the data set on Trypanosoma brucei [3] worked out at 19.4 µM.

For `COc1cc(NC(=O)c2cccc(Br)c2)ccc1S(N)(=O)=O`, the 50% inhibitory concentration (IC50) at 48 h in data set [1] was determined as 48.6 µM; in data set [4], 20.9 µM. Moreover, the selectivity ratio in data set [2] was found to be 1.57; in data set [5], 3.66. For the same compound, in the data set with Trypanosoma brucei [3], the IC50 is 13.3 µM.

For the compound `COc1cc(NC(=O)c2cccc(C(F)(F)F)c2)ccc1S(N)(=O)=O`, the IC50 at 48 h was above 100 µM in data set [1] and 76.7 µM in data set [4]. The selectivity ratio in data set [2] is 2.13; in data set [5], above 2.78. In addition, the IC50 with Trypanosoma brucei [3] is 35.9 µM.

As to `COc1cc(NC(=O)c2ccc(SC)cc2)ccc1S(N)(=O)=O`, the 50% inhibitory concentration (IC50) at 48 h in data set [1] was above 100 µM; in data set [4], 19.6 µM. Besides, in data set [2], the selectivity ratio was below 0.2. In addition, the 50% inhibitory concentration (IC50) in the data set on Trypanosoma brucei [3] was above 100 µM.

As for `COc1cc(NC(=O)c2ccc(Br)cc2)ccc1S(N)(=O)=O`, the IC50 at 48 h was found to be 86.8 µM in data set [1] and 48.3 µM in data set [4]. Also, the figures for the selectivity ratio in data set [2] and in data set [5] were 12.1 and 21.7, respectively. Besides, the IC50 with Trypanosoma brucei [3] amounted to 3.26 µM.

`COc1cc(NC(=O)c2cc(OC)c(OC)c(OC)c2)ccc1S(N)(=O)=O`: the half-inhibitory concentration (IC50) at 48 h is 32.9 µM in data set [1] and 34.6 µM in data set [4]. The selectivity ratio in data set [2] turned out to be 0.38; in data set [5] it was 0.36. Besides, the IC50 in the data set on Trypanosoma brucei [3] came to 92.1 µM.

`COc1cc(NC(=O)c2ccc(N(C)C)cc2)ccc1S(N)(=O)=O`: the IC50 at 48 h in data set [1] and in data set [4] was above 100 µM in each case. In addition, the IC50 in the data set with Trypanosoma brucei [3] is above 100 µM.

With `COc1cc(NC(=O)c2cccc(C#N)c2)ccc1S(N)(=O)=O`, the IC50 at 48 h in data set [1] is above 100 µM; in data set [4], 35 µM. Moreover, the selectivity ratio in data set [2] was 1.68; in data set [5], above 4. Moreover, the IC50 with Trypanosoma brucei [3] is 20.8 µM.

As for `COc1cc(NC(=O)c2ccc(C)c([N+](=O)[O-])c2)ccc1S(N)(=O)=O`, the concentration for half-maximal inhibition (IC50) at 48 h in data set [1] is above 100 µM; in data set [4], 53.1 µM. Also, the half-inhibitory concentration (IC50) with Trypanosoma brucei [3] was found to be 7.76 µM. In data set [5], the selectivity ratio was above 33.3.

For the compound `COc1cc(NC(=O)c2ccc3ccccc3c2)ccc1S(N)(=O)=O`, the IC50 at 48 h turned out to be 18 µM in data set [1] and 18.1 µM in data set [4]. The values for the selectivity ratio in data set [2] and in data set [5] were 18.1 and 17.9, respectively. Besides, the Activity entry was “Non-Toxic” in data set [6] and 10 10^6/ml in the data set with Trypanosoma brucei [7]. Also, in the data set with Trypanosoma brucei [3], the IC50 came out at 1 µM.

Regarding `COc1cc(NC(=O)c2ccc(C)cc2)ccc1S(N)(=O)=O`, the IC50 at 48 h in data set [1] amounted to 17.2 µM; in data set [4], 53.2 µM. For the same compound, the selectivity ratio in data set [2] was 0.76; in data set [5], 0.24. In addition, in the data set on Trypanosoma brucei [3], the concentration for half-maximal inhibition (IC50) came to 70.4 µM.

In the case of `CCOc1ccc(C(=O)Nc2ccc(S(N)(=O)=O)c(OC)c2)cc1`, the IC50 at 48 h in data set [1] and in data set [4] was above 100 µM in each case. In addition, the selectivity ratio in data set [2] and in data set [5] was above 37.3 in each case. Also, the IC50 in the data set on Trypanosoma brucei [3] came to 2.68 µM.

For the compound `COc1cc(NC(=O)c2ccc3c(c2)OCO3)ccc1S(N)(=O)=O`, the IC50 at 48 h in data set [1] is 8.8 µM; in data set [4], 48.1 µM. The selectivity ratio was determined as 4.41 in data set [2] and 0.81 in data set [5]. Further, in the data set with Trypanosoma brucei [3], the IC50 worked out at 10.9 µM.

In the case of `COc1cccc(C(=O)Nc2ccc(S(N)(=O)=O)c(OC)c2)c1`, the IC50 at 48 h is above 100 µM in data set [1] and 113 µM in data set [4]. Also, the results for the selectivity ratio in data set [2] and in data set [5] were 38 and above 33.5, respectively. Besides, the concentration for half-maximal inhibition (IC50) in the data set on Trypanosoma brucei [3] stood at 2.99 µM.

Turning to `COc1cc(NC(=O)c2ccco2)ccc1S(N)(=O)=O`, the half-inhibitory concentration (IC50) at 48 h in data set [1] and in data set [4] was above 100 µM throughout. The selectivity ratio in data set [2] and in data set [5] was above 10.2 in each case. For the same compound, the half-maximal inhibitory concentration (IC50) with Trypanosoma brucei [3] is 9.79 µM.

On to `COc1cc(NC(=O)c2ccc([N+](=O)[O-])cc2)ccc1S(N)(=O)=O`, for which the IC50 at 48 h is above 100 µM in data set [1] and 578 µM in data set [4]. For the same compound, the selectivity ratio was 176 in data set [2] and above 30.4 in data set [5]. Also, in the data set with Trypanosoma brucei [3], the IC50 was found to be 3.29 µM.

Turning to `COc1cc(NC(=O)c2ccccn2)ccc1S(N)(=O)=O`, the IC50 at 48 h in data set [1] and in data set [4] was above 100 µM each time. For the same compound, in the data set with Trypanosoma brucei [3], the IC50 was above 100 µM.

Take `COc1cc(NC(=O)c2ccc(C#N)cc2)ccc1S(N)(=O)=O`: the IC50 at 48 h in data set [1] and in data set [4] was above 100 µM each time. Moreover, the selectivity ratio in data set [2] and in data set [5] was above 26.5 in each case. For the same compound, the half-inhibitory concentration (IC50) in the data set on Trypanosoma brucei [3] came out at 4.23 µM.

`COc1cc(NC(=O)c2cc(C(F)(F)F)cc(C(F)(F)F)c2)ccc1S(N)(=O)=O`: the results for the IC50 at 48 h in data set [1] and in data set [4] were 74.3 µM and 46.3 µM, respectively. For the same compound, the selectivity ratio in data set [2] came to 1.94; in data set [5], 3.11. In the data set on Trypanosoma brucei [3], the concentration for half-maximal inhibition (IC50) is 23.9 µM.

Consider `COc1cc(NC(=O)c2cccc(Cl)c2)ccc1S(N)(=O)=O`, for which the IC50 at 48 h in data set [1] was above 100 µM; in data set [4], 91.5 µM. In addition, the selectivity ratio is 33.5 in data set [2] and above 36.6 in data set [5]. The IC50 in the data set with Trypanosoma brucei [3] turned out to be 2.73 µM.

As for `COc1cc(NC(=O)c2ccc(OC(F)(F)F)cc2)ccc1S(N)(=O)=O`, the IC50 at 48 h in data set [1] stood at 35.8 µM; in data set [4], 33.8 µM. For the same compound, the figures for the selectivity ratio in data set [2] and in data set [5] were 0.93 and 0.99, respectively. In addition, the half-maximal inhibitory concentration (IC50) with Trypanosoma brucei [3] was found to be 36.3 µM.

For `COc1cc(NC(=O)c2cccc(C)c2)ccc1S(N)(=O)=O`, the half-inhibitory concentration (IC50) at 48 h in data set [1] and in data set [4] was above 100 µM in each case. In addition, the selectivity ratio in data set [2] and in data set [5] was above 3.22 each time. In the data set with Trypanosoma brucei [3], the IC50 was 31 µM.

In the case of `CCc1ccc(C(=O)Nc2ccc(S(N)(=O)=O)c(OC)c2)cc1`, the IC50 at 48 h in data set [1] turned out to be 5.69 µM; in data set [4] it was 23.9 µM. Further, the selectivity ratio in data set [2] stood at 0.64; in data set [5], 0.15. Besides, the IC50 in the data set on Trypanosoma brucei [3] was 37.2 µM.

In the case of `COc1cc(NC(=O)c2ccccc2[N+](=O)[O-])ccc1S(N)(=O)=O`, the half-inhibitory concentration (IC50) at 48 h in data set [1] and in data set [4] was above 100 µM in each case. For the same compound, the IC50 in the data set with Trypanosoma brucei [3] is above 100 µM.

Turning to `COc1cc(NC(=O)c2ccc(Cl)cc2)ccc1S(N)(=O)=O`, the IC50 at 48 h is above 100 µM in data set [1] and 43.9 µM in data set [4]. In addition, the results for the selectivity ratio in data set [2] and in data set [5] were 0.94 and above 2.14, respectively. Besides, in the data set with Trypanosoma brucei [3], the concentration for half-maximal inhibition (IC50) was determined as 46.6 µM.

Take `COc1cc(NC(=O)COCC(=O)Nc2ccc(S(N)(=O)=O)c(OC)c2)ccc1S(N)(=O)=O`: the IC50 at 48 h is 98 µM in data set [1] and 81 µM in data set [4]. For the same compound, the selectivity ratio in data set [2] was found to be 0.95; in data set [5] it was 1.15. Also, the IC50 with Trypanosoma brucei [3] amounted to 85.2 µM.

For `COc1cc(NC(=O)c2ccc(C(F)(F)F)cc2C(F)(F)F)ccc1S(N)(=O)=O`, the IC50 at 48 h was above 100 µM in data set [1] and 59.1 µM in data set [4]. For the same compound, the selectivity ratio was 0.73 in data set [2] and above 1.22 in data set [5]. The IC50 in the data set on Trypanosoma brucei [3] was 81.4 µM.

In the case of `COc1cc(NC(=O)c2ccc(Cl)c(Cl)c2)ccc1S(N)(=O)=O`, the 50% inhibitory concentration (IC50) at 48 h in data set [1] amounted to 22.4 µM; in data set [4], 23.8 µM. The selectivity ratio came to 0.62 in data set [2] and 0.58 in data set [5]. For the same compound, in the data set with Trypanosoma brucei [3], the IC50 stood at 38.6 µM.

For the compound `COc1cc(NC(=O)c2cc(Cl)cc(Cl)c2)ccc1S(N)(=O)=O`, the IC50 at 48 h in data set [1] was 98 µM; in data set [4] it was 81 µM. For the same compound, the selectivity ratio in data set [2] is below 0.81; in data set [5], below 0.98. In the data set with Trypanosoma brucei [3], the IC50 is above 100 µM.

The values are drawn from ChEMBL document CHEMBL5550157, “Synthesis and biological evaluation of orally active anti-Trypanosoma agents” (Bioorg Med Chem, 2024).
